Assay results from the NIST ThermoML archive (doi:10.1016/j.jct.2012.03.013).
Numbers after ± are expanded uncertainties.

Assays:
[1] = molar heat capacity at constant pressure; details: Liquid, Acoustic Method
[2] = Liquid; for speed of sound: Pulse-echo method
[3] = refractive index (Na D-line) (dimensionless); details: 298.15 K; 101.33 kPa; Liquid; Standard Abbe refractometry

OCCCCO [1,4-butanediol]
Details	molar heat capacity at constant pressure [J/K/mol]	speed of sound [m/s]
[1], 298.15 K, 10000 kPa	202.7 ± 0.1	–
[1], 298.15 K, 20000 kPa	202.4 ± 0.1	–
[1], 298.15 K, 30000 kPa	202 ± 0.1	–
[1], 298.15 K, 40000 kPa	201.7 ± 0.1	–
[1], 303.15 K, 10000 kPa	205.5 ± 0.1	–
[1], 303.15 K, 20000 kPa	205.1 ± 0.1	–
[1], 303.15 K, 30000 kPa	204.7 ± 0.1	–
[1], 303.15 K, 40000 kPa	204.4 ± 0.1	–
[1], 303.15 K, 50000 kPa	204.1 ± 0.1	–
[1], 303.15 K, 60000 kPa	203.8 ± 0.1	–
[1], 303.15 K, 70000 kPa	203.5 ± 0.1	–
[1], 303.15 K, 80000 kPa	203.2 ± 0.1	–
[1], 303.15 K, 90000 kPa	202.9 ± 0.1	–
[1], 308.15 K, 10000 kPa	208.3 ± 0.1	–
[1], 308.15 K, 20000 kPa	207.9 ± 0.1	–
[1], 308.15 K, 30000 kPa	207.6 ± 0.1	–
[1], 308.15 K, 40000 kPa	207.2 ± 0.1	–
[1], 308.15 K, 50000 kPa	206.9 ± 0.1	–
[1], 308.15 K, 60000 kPa	206.6 ± 0.1	–
[1], 308.15 K, 70000 kPa	206.3 ± 0.1	–
[1], 308.15 K, 80000 kPa	206 ± 0.1	–
[1], 308.15 K, 90000 kPa	205.7 ± 0.1	–
[1], 308.15 K, 100000 kPa	205.4 ± 0.1	–
[1], 313.15 K, 10000 kPa	211.2 ± 0.1	–
[1], 313.15 K, 20000 kPa	210.8 ± 0.1	–
[1], 313.15 K, 30000 kPa	210.4 ± 0.1	–
[1], 313.15 K, 40000 kPa	210.1 ± 0.1	–
[1], 313.15 K, 50000 kPa	209.7 ± 0.1	–
[1], 313.15 K, 60000 kPa	209.4 ± 0.1	–
[1], 313.15 K, 70000 kPa	209.1 ± 0.1	–
[1], 313.15 K, 80000 kPa	208.8 ± 0.1	–
[1], 313.15 K, 90000 kPa	208.5 ± 0.1	–
[1], 313.15 K, 100000 kPa	208.2 ± 0.1	–
[1], 318.15 K, 10000 kPa	214.2 ± 0.1	–
[1], 318.15 K, 20000 kPa	213.8 ± 0.1	–
[1], 318.15 K, 30000 kPa	213.4 ± 0.1	–
[1], 318.15 K, 40000 kPa	213 ± 0.1	–
[1], 318.15 K, 50000 kPa	212.7 ± 0.1	–
[1], 318.15 K, 60000 kPa	212.3 ± 0.1	–
[1], 318.15 K, 70000 kPa	212 ± 0.1	–
[1], 318.15 K, 80000 kPa	211.7 ± 0.1	–
[1], 318.15 K, 90000 kPa	211.4 ± 0.1	–
[1], 318.15 K, 100000 kPa	211.1 ± 0.1	–
[2], 298.07 K, 15200 kPa	–	1649.2 ± 1.4
[2], 298.07 K, 30390 kPa	–	1693.3 ± 1.4
[2], 298.08 K, 45590 kPa	–	1735.4 ± 1.4
[2], 298.11 K, 100 kPa	–	1602.1 ± 1.3
[2], 298.15 K, 101.33 kPa	–	1601.8 ± 1.3
[2], 303.15 K, 101.33 kPa	–	1589.9 ± 1.3
[2], 303.15 K, 60790 kPa	–	1763.6 ± 1.4
[2], 303.15 K, 70920 kPa	–	1789.3 ± 1.5
[2], 303.15 K, 75990 kPa	–	1801.9 ± 1.5
[2], 303.15 K, 91180 kPa	–	1837.8 ± 1.5
[2], 303.16 K, 30390 kPa	–	1682.4 ± 1.4
[2], 303.16 K, 45590 kPa	–	1724.1 ± 1.4
[2], 303.16 K, 50660 kPa	–	1738 ± 1.4
[2], 303.17 K, 100 kPa	–	1590.2 ± 1.3
[2], 303.17 K, 15200 kPa	–	1637.6 ± 1.4
[2], 308.14 K, 15200 kPa	–	1626.6 ± 1.4
[2], 308.14 K, 30390 kPa	–	1671.6 ± 1.4
[2], 308.14 K, 45590 kPa	–	1713.7 ± 1.4
[2], 308.14 K, 75990 kPa	–	1792 ± 1.5
[2], 308.14 K, 91180 kPa	–	1828.2 ± 1.5
[2], 308.14 K, 101320 kPa	–	1851.7 ± 1.6
[2], 308.15 K, 100 kPa	–	1578.4 ± 1.3
[2], 308.15 K, 101.33 kPa	–	1578.5 ± 1.3
[2], 308.15 K, 60790 kPa	–	1753.3 ± 1.4
[2], 313.09 K, 15200 kPa	–	1614.6 ± 1.4
[2], 313.09 K, 30390 kPa	–	1660.5 ± 1.4
[2], 313.1 K, 45590 kPa	–	1703 ± 1.4
[2], 313.1 K, 60790 kPa	–	1743.5 ± 1.4
[2], 313.1 K, 75990 kPa	–	1782 ± 1.5
[2], 313.1 K, 91180 kPa	–	1819 ± 1.5
[2], 313.1 K, 101320 kPa	–	1842.1 ± 1.6
[2], 313.12 K, 100 kPa	–	1567 ± 1.3
[2], 313.15 K, 101.33 kPa	–	1566.7 ± 1.3
[2], 318.15 K, 101.33 kPa	–	1555.2 ± 1.3
[2], 318.17 K, 30390 kPa	–	1649.8 ± 1.4
[2], 318.17 K, 45590 kPa	–	1692.6 ± 1.4
[2], 318.17 K, 60790 kPa	–	1733.4 ± 1.4
[2], 318.17 K, 75990 kPa	–	1772 ± 1.5
[2], 318.18 K, 15200 kPa	–	1603.3 ± 1.4
[2], 318.18 K, 91180 kPa	–	1809.4 ± 1.5
[2], 318.18 K, 101320 kPa	–	1832.7 ± 1.6
[2], 318.2 K, 100 kPa	–	1555.3 ± 1.3

[2]
Details	mass density [kg/m3]
293.15 K, 100 kPa, Acoustic method	1015.74 ± 0.13
293.15 K, 101.33 kPa, Vibrating tube method	1015.74 ± 0.13
298.15 K, 100 kPa, Acoustic method	1012.78 ± 0.13
298.15 K, 101.33 kPa, Vibrating tube method	1012.78 ± 0.13
298.15 K, 10000 kPa, Acoustic method	1016.99 ± 0.13
298.15 K, 20000 kPa, Acoustic method	1021.1 ± 0.13
298.15 K, 30000 kPa, Acoustic method	1025.06 ± 0.13
298.15 K, 40000 kPa, Acoustic method	1028.89 ± 0.13
303.14 K, 101.33 kPa, Vibrating tube method	1009.78 ± 0.13
303.15 K, 100 kPa, Acoustic method	1009.77 ± 0.13
303.15 K, 10000 kPa, Acoustic method	1014.06 ± 0.13
303.15 K, 20000 kPa, Acoustic method	1018.23 ± 0.13
303.15 K, 30000 kPa, Acoustic method	1022.25 ± 0.13
303.15 K, 40000 kPa, Acoustic method	1026.13 ± 0.13
303.15 K, 50000 kPa, Acoustic method	1029.88 ± 0.14
303.15 K, 60000 kPa, Acoustic method	1033.51 ± 0.14
303.15 K, 70000 kPa, Acoustic method	1037.04 ± 0.14
303.15 K, 80000 kPa, Acoustic method	1040.47 ± 0.15
303.15 K, 90000 kPa, Acoustic method	1043.8 ± 0.15
308.15 K, 100 kPa, Acoustic method	1006.76 ± 0.13
308.15 K, 101.33 kPa, Vibrating tube method	1006.76 ± 0.13
308.15 K, 10000 kPa, Acoustic method	1011.12 ± 0.13
308.15 K, 20000 kPa, Acoustic method	1015.35 ± 0.13
308.15 K, 30000 kPa, Acoustic method	1019.42 ± 0.13
308.15 K, 40000 kPa, Acoustic method	1023.35 ± 0.13
308.15 K, 50000 kPa, Acoustic method	1027.15 ± 0.14
308.15 K, 60000 kPa, Acoustic method	1030.83 ± 0.14
308.15 K, 70000 kPa, Acoustic method	1034.41 ± 0.14
308.15 K, 80000 kPa, Acoustic method	1037.87 ± 0.15
308.15 K, 90000 kPa, Acoustic method	1041.25 ± 0.15
308.15 K, 100000 kPa, Acoustic method	1044.53 ± 0.16
313.14 K, 101.33 kPa, Vibrating tube method	1003.72 ± 0.13
313.15 K, 100 kPa, Acoustic method	1003.73 ± 0.13
313.15 K, 10000 kPa, Acoustic method	1008.15 ± 0.13
313.15 K, 20000 kPa, Acoustic method	1012.44 ± 0.13
313.15 K, 30000 kPa, Acoustic method	1016.57 ± 0.13
313.15 K, 40000 kPa, Acoustic method	1020.56 ± 0.13
313.15 K, 50000 kPa, Acoustic method	1024.41 ± 0.14
313.15 K, 60000 kPa, Acoustic method	1028.14 ± 0.14
313.15 K, 70000 kPa, Acoustic method	1031.76 ± 0.14
313.15 K, 80000 kPa, Acoustic method	1035.27 ± 0.15
313.15 K, 90000 kPa, Acoustic method	1038.68 ± 0.15
313.15 K, 100000 kPa, Acoustic method	1042 ± 0.16
318.15 K, 100 kPa, Acoustic method	1000.67 ± 0.13
318.15 K, 101.33 kPa, Vibrating tube method	1000.67 ± 0.13
318.15 K, 10000 kPa, Acoustic method	1005.17 ± 0.13
318.15 K, 20000 kPa, Acoustic method	1009.52 ± 0.13
318.15 K, 30000 kPa, Acoustic method	1013.71 ± 0.13
318.15 K, 40000 kPa, Acoustic method	1017.75 ± 0.13
318.15 K, 50000 kPa, Acoustic method	1021.65 ± 0.14
318.15 K, 60000 kPa, Acoustic method	1025.43 ± 0.14
318.15 K, 70000 kPa, Acoustic method	1029.09 ± 0.14
318.15 K, 80000 kPa, Acoustic method	1032.64 ± 0.15
318.15 K, 90000 kPa, Acoustic method	1036.09 ± 0.15
318.15 K, 100000 kPa, Acoustic method	1039.45 ± 0.16
323.15 K, 101.33 kPa, Vibrating tube method	997.61 ± 0.13
328.15 K, 101.33 kPa, Vibrating tube method	994.53 ± 0.13
333.15 K, 101.33 kPa, Vibrating tube method	991.44 ± 0.13
338.15 K, 101.33 kPa, Vibrating tube method	988.31 ± 0.13
343.14 K, 101.33 kPa, Vibrating tube method	985.17 ± 0.13
348.15 K, 101.33 kPa, Vibrating tube method	982.01 ± 0.13
353.15 K, 101.33 kPa, Vibrating tube method	978.82 ± 0.13

Details	refractive index
[3]	1.4447 ± 0.0008
